Measurements taken from patent US12251469B2, “Sterically stabilized carrier compositions for treating a mammal” (VGSK Technologies, Inc., priority 2015, dated 2025).

Tested on: sensitized mice
Assay: Preliminary dose-response study of BUD in sensitized mice, histopathologic examination
Type: in vivo
Description: The dose of BUD chosen was based on preliminary dose-response studies with 5 to 50 μg of BUD as follows.
Each day, 5, 10, 15, 20 or 50 μg of BUD was administered to groups of sensitized mice, and the dose-dependent effects on the inflammatory parameters were evaluated.
The tissues were removed and fixed with 10% phosphate buffered formalin. Tissue samples were taken from the skin, spleen, liver, gastrointestinal tract, and kidney. The tissues were embedded in paraffin, sectioned at 5 μm thickness and stained with hematoxylin and eosin and analyzed using light microscopy.
Coded slides were examined by a pathologist in a blinded fashion for evidence of inflammatory changes, including epithelial hyperplasia and perivascular edema and accumulation of eosinophils, neutrophils, and mononuclear inflammatory cells. Each of the parameters evaluated was given an individual number score. Objective measurements of histopathological changes include aggregation of eosinophils around blood vessels (perivascular), accumulation of other inflammatory cells, presence of desquamation and hyperplasia of the epithelium, and infiltration of inflammatory cells.

CCCC1O[C@@H]2C[C@H]3[C@@H]4CCC5=CC(=O)C=C[C@]5(C)[C@H]4[C@@H](O)C[C@]3(C)[C@]2(C(=O)CO)O1 (stereo partly shown) [Daily BUD, budesonide]
granulomas or abnormalities in any of the tissues evaluated: no granulomas or abnormalities
